molecular target: T1, Sting-HAQ (Homo sapiens, UniProt Q86WV6, G230A/H232R/R293Q/R71H); assay: HEK293-HAQ Luc reporter gene assay (Steady-Glo luciferase); format: cell-based; settings: 24 h incubation; read-out: HEK293-HAQ Luc Report Assay (24 h) EC50
T1 construct: host or cells: HEK293-HAQ Luc reporter cell line
Experimental: Test Principle: The HEK293-HAQ Luc reporter cell line utilizes the chemiluminescent reaction property of luciferase binding to its substrate beetle luciferin. The regulatory elements of the Sting-HAQ gene transcription are cloned upstream/downstream of the firefly luciferase gene to construct a luciferase recombinant plasmid. The recombinant plasmid is then transfected into HEK293 cells. After treatment with compounds, the cells are lysed, and the luciferase activity is measured using the Steady-Glo® detection system (Cat #E2550) manufactured by Promega Corporation. The effect of compounds on the Sting-HAQ regulatory elements is determined based on the level of luciferase activity. The Steady Glo® Luciferase Assay System enables high-throughput evaluation of the degree of activation of reporter cell lines by compounds through the activity of luciferase in mammalian cells, and provides long-term stable luminescence when used with reporter cell lines. The detection system can sustain a signal half-life of more than 5 hours in the test cell culture medium, enabling uniform measurement without sample pretreatment.
Test Method: Complete medium (DMEM+10% FBS+1% P/S) was prepared. The Hek293-HAQ Luc reporter cell line was resuscitated and passaged twice. Cells in logarithmic growth phase were collected by centrifugation, counted, and resuspended to an appropriate concentration. The cell suspension was seeded into a 96-well plate at a density of 20000 cells/well, with 100 µL of the cell suspension added per well. Test compounds were prepared into stock solutions with DMSO, and serially diluted 3-fold with DMSO starting from the highest concentration of 100 mM to obtain 9 concentration gradients. The test compounds were diluted 47.62-fold with culture medium, and 5 μL of each dilution was added to the 96-well plate containing 100 μL of cells. To Min control wells were added 5 μL of DMSO-cell culture medium mixture (with a final DMSO concentration of 0.1%), while Max control wells received 5 μL of a positive reference compound. The plate was incubated at 37° C. in an incubator with 5% carbon dioxide and relative humidity above 90% for 24 h. Subsequently, 75 μL/well of […] was added to terminate the reaction. After shaking at 305 rpm for 10 min, the plates were detected on Envision. The […] value RLU of each well was read, and the activation rate was calculated according to the formula: Activation %=(Sample−Ave_L)/(Ave_H−Ave_L)×100, where Ave_L: RLU Min (0.1% DMSO), Ave_H: RLU Max (positive reference compound). The activation rate, Activation % (Y), corresponding to each concentration (X), was entered in EXCEL. The half-maximal effective concentration EC50 value of each compound was calculated according to the built-in four-parameter fitting formula Y=Bottom+(Top−Bottom)/(1+10^((LogEC50−X)*HillSlope)) using the XLfit plug-in.

T1 sequence (Q86WV6 whole entry R71H/G230A/H232R/R293Q): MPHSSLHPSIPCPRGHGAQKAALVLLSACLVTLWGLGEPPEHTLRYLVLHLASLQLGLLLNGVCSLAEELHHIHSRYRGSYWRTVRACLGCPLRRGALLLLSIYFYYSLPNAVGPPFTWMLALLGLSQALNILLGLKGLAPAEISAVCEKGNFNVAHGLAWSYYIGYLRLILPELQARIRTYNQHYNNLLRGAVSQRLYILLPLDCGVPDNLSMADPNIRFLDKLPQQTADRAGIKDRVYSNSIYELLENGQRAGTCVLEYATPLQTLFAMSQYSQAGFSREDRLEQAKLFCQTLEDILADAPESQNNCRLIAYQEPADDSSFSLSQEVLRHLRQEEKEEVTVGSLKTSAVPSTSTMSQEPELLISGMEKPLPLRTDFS

Structure (SMILES)	EC50 [µM]
C[Si](C)(C)CCOCn1cc2c(ccc3sc(C(=O)CCC(=O)O)cc32)n1	> 100
COc1cc2sc(C(=O)CCC(=O)O)cc2c2ncn(C)c12	> 100
COc1cc2sc(C(=O)C(C)CC(=O)O)nc2c2nc(C)oc12 (stereo not shown)	59.9
COc1cc2sc(C(=O)C[C@H](C)C(=O)O)nc2c2nc(C)oc12	4.18
COc1cc2sc(C(=O)C[C@@H](C)C(=O)O)cc2c2cc(F)oc12	6.87
COc1cc2sc(C(=O)CCC(=O)O)cc2c2cnoc12	> 100
COc1cc2sc(C(=O)CC(C)C(=O)O)c(C)c2c2nc(N)oc12 (stereo not shown)	> 100
COc1cc2sc(C(=O)CCC(=O)O)cc2c2c1ncn2C	> 100
COc1cc2sc(C(=O)CCC(=O)O)c(C)c2c2ccoc12	29.8
Cn1cc2c(ccc3sc(C(=O)CCC(=O)O)cc32)n1	41.8
O=C(O)CCC(=O)c1cc2c(ccc3[nH]ncc32)s1	> 100
COc1cc2sc(C(=O)CCC(=O)O)cc2c2nc(C(C)C)oc12	> 100
C[Si](C)(C)CCOCn1ncc2c3cc(C(=O)CCC(=O)O)sc3ccc21	> 100
COc1cc2sc(C(=O)C[C@@H](C)C(=O)O)nc2c2nc(C)oc12	67.7
CCc1nc2c(o1)c(OC)cc1sc(C(=O)CCC(=O)O)cc12	36
COc1cc2sc(C(=O)CCC(=O)O)c(C)c2c2cc(C)oc12	19
COc1cc2sc(C(=O)CCC(=O)O)c(C)c2c2ncoc12	58
Cn1ncc2c3cc(C(=O)CCC(=O)O)sc3ccc21	> 100
COc1cc2sc(C(=O)CCC(=O)O)cc2c2ocnc12	2.5
CC[C@H](CC(=O)c1cc2c(cc(OC)c3oc(C)cc32)s1)C(=O)O	4.46
CC[C@H](CC(=O)c1cc2c(cc(OC)c3oc(F)cc32)s1)C(=O)O	4.1

Structure (SMILES)	EC50 [µM]
COc1cc2sc(C(=O)CCC(=O)O)nc2c2nc(C)oc12	18
COc1cc2sc(C(=O)CCC(=O)O)cc2c2cn(C)nc12	49
COc1cc2sc(C(=O)C[C@@H](C)C(=O)O)cc2c2ncoc12	5.81
COc1cc2sc(C(=O)CCC(=O)O)cc2c2nc(C3CC3)oc12	90.7
COc1cc2sc(C(=O)CCC(=O)O)cc2c2c1OCC2	7.87
COc1cc2sc(C(=O)CCC(=O)O)c(C)c2c2nc(N)oc12	> 100
COc1cc2sc(C(=O)CCC(=O)O)cc2c2cnn(C)c12	> 100
COc1cc2sc(C(=O)CCC(=O)O)cc2c2ccn(C)c12	> 100
COc1cc2sc(C(=O)CCC(=O)O)cc2c2ccoc12	2.52
COc1cc2sc(C(=O)CC(C)C(=O)O)c(C)c2c2ncoc12 (stereo not shown)	92
COc1cc2sc(C(=O)CC(C)C(=O)O)nc2c2nc(C)oc12 (stereo not shown)	3.32
COc1cc2sc(C(=O)CC(C)C(=O)O)cc2c2nc(N)oc12 (stereo not shown)	> 100
COc1cc2sc(C(=O)CC(C)C(=O)O)nc2c2cc(C)oc12 (stereo not shown)	2.34
COc1cc2sc(C(=O)CCC(=O)O)cc2c2c1CCC2	> 100
COc1cc2sc(C(=O)CC(C)C(=O)O)cc2c2ncoc12 (stereo not shown) [drawing 631]	1.12
COc1cc2sc(C(=O)CCC(=O)O)cc2c2ccsc12	10.7
COc1cc2sc(C(=O)CCC(=O)O)cc2c2nc[nH]c12	> 100
COc1cc2sc(C(=O)C[C@H](C)C(=O)O)cc2c2ncoc12 [drawing 651]	0.16
COc1cc2sc(C(=O)CCC(=O)O)cc2c2c1OCCO2	> 100
COc1cc2sc(C(=O)CCC(=O)O)cc2c2nc(N)oc12	> 100
C[C@@H](CC(=O)c1cc2c(cc(O)c3oc(F)cc32)s1)C(=O)O	29.3

More lines, now with the values ahead:

EC50 [µM]	Structure (SMILES)
2.2	COc1cc2sc(C(=O)CC(C)C(=O)O)cc2c2ccoc12 (stereo not shown)
1.58	COc1cc2sc(C(=O)CCC(=O)O)cc2c2nc(C)oc12 [drawing 626]
1.51	COc1cc2sc(C(=O)C[C@@H](C)C(=O)O)cc2c2c(F)c(C)oc12
1.23	COc1cc2sc(C(=O)CCC(=O)O)cc2c2ncoc12 [drawing 622]
1.2	COc1cc2sc(C(=O)CC(C)C(=O)O)cc2c2cc(C)oc12 (stereo not shown)
1.04	COc1cc2sc(C(=O)CCC(=O)O)cc2c2cc(C)oc12
0.979	CCC(CC(=O)c1cc2c(cc(OC)c3occc32)s1)C(=O)O (stereo not shown)
0.823	CCC(CC(=O)c1cc2c(cc(OC)c3oc(F)cc32)s1)C(=O)O (stereo not shown)
0.792	COc1cc2sc(C(=O)CCC(=O)O)cc2c2cc(F)oc12
0.57	COc1cc2sc(C(=O)CC(C)C(=O)O)cc2c2cc(F)oc12 (stereo not shown)
0.565	CCC(CC(=O)c1cc2c(cc(OC)c3oc(C)cc32)s1)C(=O)O (stereo not shown)
0.465	COc1cc2sc(C(=O)C[C@H](C)C(=O)O)cc2c2cc(F)oc12 [drawing 673]
0.352	CC[C@@H](CC(=O)c1cc2c(cc(OC)c3oc(F)cc32)s1)C(=O)O
0.341	COc1cc2sc(C(=O)C[C@H](C)C(=O)O)cc2c2cc(C)oc12 [drawing 660]
0.326	CCC(CC(=O)c1cc2c(cc(OC)c3oc(C)nc32)s1)C(=O)O (stereo not shown)
0.313	[2H]c1c(C)oc2c(OC)cc3sc(C(=O)C[C@H](C)C(=O)O)cc3c12
0.308	CCC(CC(=O)c1cc2c(cc(OC)c3ocnc32)s1)C(=O)O (stereo not shown)
0.302	CC[C@@H](CC(=O)c1cc2c(cc(OC)c3ocnc32)s1)C(=O)O [drawing 659]
0.263	[2H]C([2H])([2H])Oc1cc2sc(C(=O)C[C@H](C)C(=O)O)cc2c2cc(F)oc12
0.24	CC[C@@H](CC(=O)c1cc2c(cc(OC)c3oc(C)cc32)s1)C(=O)O
0.19	COc1cc2sc(C(=O)C[C@H](C)C(=O)O)cc2c2c(F)c(C)oc12 [drawing 678]

test system: not listed separately; assay: Pharmacokinetic (PK) study in ICR mice, IV and PO; settings: ICR, mouse, plasma, iv, 2 mg/kg
Experimental: The doses for IV and PO were 2 mg/kg and 5 mg/kg, respectively. Blood was collected at different time points after IV and PO administration and placed in heparinized tubes. Plasma was separated and frozen in a −20° C. refrigerator. Plasma was processed and then analyzed by LCMS/MS. Pharmacokinetic parameters of drug administration were calculated using a non-compartmental model in WinNonlin 8.2 software.

AUC(0-t) [ng·h/mL]	Vd [L/kg]	clearance [mL/min/kg]	half-life [h]	Structure (SMILES)
5500	0.191	6.03	2.35	COc1cc2sc(C(=O)C[C@H](C)C(=O)O)cc2c2c(F)c(C)oc12 [Compound 59]
660	0.76	50.3	0.658	COc1cc2sc(C(=O)CCC(=O)O)cc2c2ncoc12 [Compound 1, 4-(4-methoxythieno[2′,3′:5,6]benzo[1,2-d]oxazol-7-yl)-4-oxobutanoic acid]
3700	0.252	8.98	0.821	COc1cc2sc(C(=O)C[C@H](C)C(=O)O)cc2c2cc(C)oc12 [Example 32]
4240	0.264	7.85	1.11	COc1cc2sc(C(=O)CCC(=O)O)cc2c2nc(C)oc12 [Example 6, 4-(4-methoxy-2-methylthieno[2′,3′:5,6]benzo[1,2-d]oxazol-7-yl)-4-oxobutanoic acid]

same assay, conditions: ICR, mouse, plasma, po, 5 mg/kg

AUC(0-t) [ng·h/mL]	Cmax [ng/mL]	bioavailability [%]	half-life [h]	Structure (SMILES)
5180	7700	38	1.1	COc1cc2sc(C(=O)C[C@H](C)C(=O)O)cc2c2c(F)c(C)oc12 [Compound 59]
757	1270	47	1.56	COc1cc2sc(C(=O)CCC(=O)O)cc2c2ncoc12 [Compound 1, 4-(4-methoxythieno[2′,3′:5,6]benzo[1,2-d]oxazol-7-yl)-4-oxobutanoic acid]
3450	5360	37.4	0.925	COc1cc2sc(C(=O)C[C@H](C)C(=O)O)cc2c2cc(C)oc12 [Example 32]
3680	4280	42.5	2.64	COc1cc2sc(C(=O)CCC(=O)O)cc2c2nc(C)oc12 [Example 6, 4-(4-methoxy-2-methylthieno[2′,3′:5,6]benzo[1,2-d]oxazol-7-yl)-4-oxobutanoic acid]

same assay, conditions: mouse PK, injection 2 mg/kg and oral 5 mg/kg

clearance in vivo compared to MAS-2	exposure in vivo compared to MAS-2	Structure (SMILES)
lower clearance	higher exposure	COc1cc2sc(C(=O)C[C@H](C)C(=O)O)cc2c2c(F)c(C)oc12 [Compound 59]
